The record followed here is PubChem BioAssay AID602214 (Southern Research Specialized Biocontainment Screening …, 2012).

By IC50 is commonly meant the concentration that inhibits the measured activity by half.

Activity calls are given as the source filed them.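 How the source made its calls: active means inhibition of 30% or more at any tested concentration; inactive means the rest.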

The assay addresses Cytosol aminopeptidase (Homo sapiens) (UniProt P28838). The assay can be described thus: inhibition of HuM17LAP aminopeptidase activity – biochemical, QFRET fluorogenic substrate, counter-screen for PfM17LAP inhibitor project, dose response (AID 602214). The settings on record: purified recombinant human M17LAP, H-Leu-NHMec fluorescence. For orientation: The purpose of a counterscreen is to sort out artefacts and off-target activity.

Sequence of Cytosol aminopeptidase (Homo sapiens) (P28838 whole entry, looked up): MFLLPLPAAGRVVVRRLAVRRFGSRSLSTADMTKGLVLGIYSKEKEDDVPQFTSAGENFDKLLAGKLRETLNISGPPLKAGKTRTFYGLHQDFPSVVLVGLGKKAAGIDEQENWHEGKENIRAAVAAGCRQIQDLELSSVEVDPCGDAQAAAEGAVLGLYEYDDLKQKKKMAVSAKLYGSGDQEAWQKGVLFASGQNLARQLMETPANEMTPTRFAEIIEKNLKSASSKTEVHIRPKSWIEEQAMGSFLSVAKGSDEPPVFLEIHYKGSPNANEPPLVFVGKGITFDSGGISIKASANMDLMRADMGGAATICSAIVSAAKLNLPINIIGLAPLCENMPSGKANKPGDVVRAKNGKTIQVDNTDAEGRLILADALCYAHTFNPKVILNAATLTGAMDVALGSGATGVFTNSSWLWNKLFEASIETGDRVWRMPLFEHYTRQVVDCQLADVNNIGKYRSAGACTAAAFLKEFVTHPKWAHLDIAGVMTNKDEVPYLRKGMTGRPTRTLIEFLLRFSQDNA

Regarding `COc1ccc(CC(=O)NO)cc1`, the half-inhibitory concentration (IC50) is 1640 nM. In the case of `CCn1c2ccccc2c2cc(NC(=O)CSc3nc(C)cc(=O)[nH]3)ccc21`, where the note is “at 100 µM (top of the series)”, the inhibition entry was “inactive”. The same measure, in the same setting: in the case of `COc1ccc(-c2nnc(NC(=O)C3CC(C)=C(C)CC3C(=O)O)s2)cc1` (centres undefined) it was “inactive”. For the compound `O=C(CSc1nccc(=O)[nH]1)Nc1ccc(Oc2ccccc2)cc1`, the inhibition result (at 50 µM (top of the series)) was “inactive”. As for `CCC(C)(C)C1CCc2c(sc(NC(=O)C3CC(C)=C(C)CC3C(=O)O)c2C(=O)OC)C1` (centres undefined), where the note is “at 100 µM (top of the series)”, the inhibition result is “inactive”.

As for `COc1cc(NC(=O)c2ccc(-c3ccccc3)cc2)c(C(=O)O)cc1OC`, for the setting “at 100 µM (top of the series)”, the inhibition result was “inactive”.

As for `CCCCOc1ccc(C(=O)NO)cc1`, the IC50 was 8670 nM.

`CCCCOc1ccc(CC(=O)N(C)O)cc1`: under “at 50 µM (top of the series)”, the inhibition entry is “inactive”.

In the case of `COc1cc(NC(=O)CSc2ccccc2)c(C(=O)O)cc1OC`, the inhibition entry (at 100 µM (top of the series)) was “inactive”. In the case of `COC(=O)c1ccccc1NC(=O)c1cc2cc3ccc(C)cc3nc2s1`, the inhibition result (at 50 µM (top of the series)) was “inactive”.

`CCCCOc1ccc(CC(=O)O)cc1`: the inhibition result (at 100 µM (top of the series)) was “inactive”. Turning to `COc1ccc(OCCC(=O)NO)cc1`, the IC50 is 44200 nM. The same measure, in the same setting: next, `O=C(Cc1ccc2c(c1)CCCC2)NO`: 280 nM. Take `COC(=O)c1c(NC(=O)c2ccccc2C(=O)O)sc2c1CCCC2`: the inhibition result (at 100 µM (top of the series)) is “inactive”. Take `O=C(NO)c1cccc2ccccc12`: the IC50 was 31900 nM. Take `CCCOc1ccc(CC(=O)OC)cc1`: the inhibition result (at 100 µM (top of the series)) is “inactive”.

Consider `O=C(Cc1ccc(OCc2ccccc2)cc1)NO`, for which the IC50 is 1180 nM. Turning to `CC(C)COc1ccc(CC(=O)NO)cc1`, the IC50 is 210 nM. Consider `CCCCOc1ccc(CNc2c(N(O)Cc3ccccc3)c(=O)c2=O)cc1`, for which, for the setting “at 100 µM (top of the series)”, the inhibition result is “inactive”. Still for that read-out and setting: in the case of `Cc1cc(SCC(=O)Nc2ccccc2C(=O)O)nc2ccccc12` it was “inactive”; in that of `N[C@@H](Cc1c[nH]c2ccccc12)C(=O)NO`, “inactive”; in that of `COC(=O)Cc1ccc(OCC(C)C)cc1`, “inactive”. Consider `CCCCCCCCCC(=O)NO`, for which the IC50 was 8230 nM. As to `CCOc1ccc(CC(=O)NO)cc1`, the IC50 is 1110 nM. The same measure, in the same setting: in the case of `CCCCOc1ccc(CCC(=O)NO)cc1` it was 16200 nM. For the compound `O=C(Cc1cccc2ccccc12)NO`, the IC50 is 990 nM. Regarding `O=C(O)c1ccccc1C(=O)Nc1nc2c(s1)CCCC2`, the inhibition entry (at 100 µM (top of the series)) is “inactive”. The same measure, in the same setting: next, `CCC(C)Oc1ccc(CC(=O)OC)cc1` (centres undefined): “inactive”. Turning to `CCCCOc1ccc(CC(=O)NO)cc1`, the IC50 is 310 nM.

In the case of `O=C(Nc1ccc(Cl)cc1)Nc1ccccc1C(=O)O`, the inhibition result (at 100 µM (top of the series)) is “inactive”. Same read-out and setting: next, `COC(=O)c1cc(OC)c(OC)cc1NC(=O)c1sc2nc(C)ccc2c1N`: “inactive”. In the case of `O=C1OCCC1Sc1nnc(NC2CCCCC2)s1` (centres undefined), the inhibition result (at 50 µM (top of the series)) is “inactive”. Consider `O=C(CSc1nc(O)cc(=O)[nH]1)Nc1ccccc1`, for which the inhibition entry (at 100 µM (top of the series)) was “inactive”. On the same count and under the same terms, in the case of `COC(=O)Cc1ccc(OCCN(C)C)cc1` it was “inactive”. On to `COc1ccc(CCCC(=O)NO)cc1`, for which the concentration for half-maximal inhibition (IC50) is 4580 nM.

As for `CCCCc1ccc(CC(=O)NO)cc1`, the IC50 is 350 nM.

For the compound `CC(C)(C(=O)NO)c1ccccc1`, the inhibition entry (at 100 µM (top of the series)) was “inactive”. On the same count and under the same terms, next, `O=C(CSc1nccc(=O)[nH]1)Nc1ccc(N2CCOCC2)cc1`: “inactive”; `Cc1cc(=O)[nH]c(SCC(=O)Nc2ccccc2)n1`: “inactive”. Consider `COC(=O)c1ccccc1NC(=O)c1ccc2c(Cl)c3c(nc2c1)CCC3`, for which, under “at 50 µM (top of the series)”, the inhibition result was “inactive”. On to `CC1=C(C)CC(C(=O)Nc2ccc(Oc3ccc(Cl)cc3)cc2)C(C(=O)O)C1` (centres undefined), for which the inhibition result (at 100 µM (top of the series)) is “inactive”. Turning to `O=C(Cc1ccc2ccccc2c1)NO`, the IC50 was 290 nM.

For `CN(O)C(=O)Cc1ccc(OCc2ccccc2)cc1`, the inhibition result (at 100 µM (top of the series)) was “inactive”.

Regarding `CC1CCc2sc(C(=O)Nc3cccc4c3C(=O)NC4)cc2C1` (centres undefined), the inhibition result (at 100 µM (top of the series)) is “inactive”. For the compound `Cc1ccc(CC(=O)NO)cc1`, the IC50 is 1820 nM. Same read-out and setting: next, `O=C(Cc1ccc(Oc2ccccc2)cc1)NO`: 520 nM. For the compound `Cc1ccc(NC(=O)CSc2nc(O)cc(=O)n2Cc2ccccc2)cc1`, the inhibition entry (at 100 µM (top of the series)) is “inactive”.

On to `NC(N)=NCCC[C@H](N)C(=O)NO`, for which the inhibition entry (at 100 µM (top of the series)) was “inactive”. On to `CCCCOc1ccc(CNc2c(N(C)O)c(=O)c2=O)cc1`, for which the inhibition result (at 25 µM (top of the series)) was “inactive”.

`COC(=O)c1c(NC(=O)C2CCCCC2C(=O)O)sc2c1CCC(c1ccccc1)C2` (centres undefined): the inhibition result (at 100 µM (top of the series)) was “inactive”. With `O=C(CSc1ccccc1)Nc1cccc2c1C(=O)NC2=O`, where the note is “at 100 µM (top of the series)”, the inhibition entry is “inactive”.

Regarding `CC(C)C[C@H](N)C(=O)NO`, the inhibition entry (at 100 µM (top of the series)) is “inactive”. Regarding `COC(=O)c1c(NC(=O)C2CC=CCC2C(=O)O)sc(C)c1-c1ccc(C)cc1` (centres undefined), the IC50 was 85700 nM. Turning to `CC1=C(C)CC(C(=O)Nc2nc(-c3cc(C)ccc3C)c(C)s2)C(C(=O)O)C1` (centres undefined), the inhibition result (at 100 µM (top of the series)) was “inactive”.
